# Laboratory results published in patent US20240300932A1, “N-PHENYLIMINE DERIVATIVE AND PREPARATION METHOD AND USE THEREOF” (Guizhou University, priority 2023, published 2024).
# Assays:
# Test in all cases: Post-emergence herbicidal activity test (stem and leaf spray, pot culture)
# Format in all cases: in vivo
# Settings in all cases: 3 weeks after spraying
# Abutilon theophrasti = system: Abutilon theophrasti
# Outline: (§1)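 Activity is given as a 0–5 grade of fresh weight growth control, scored three weeks after a single stem-and-leaf spray. Weeds in farmland loam were treated at the 2- to 3-leaf stage at 10, 5 and 2.5 g/mu, with methyl oleate added as synergist.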
# Amaranthus retroflexus = system: Amaranthus retroflexus
# Outline: as §1
# Echinochloa crusgalli = system: Echinochloa crusgalli
# Outline: as §1
# Portulaca oleracea = system: Portulaca oleracea
# Outline: as §1
# Setaria viridis = system: Setaria viridis
# Outline: as §1
# Trifoliumre pensL. = system: Trifoliumre pensL.
# Outline: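 Rates of 10, 5 and 2.5 g/mu were applied in a single spray-tower treatment to 2–3-leaf plants, thinned to 10 per pot. Formulation: acetone solution, Tween 80, 1.5 L/ha methyl oleate synergist. Weed response assessed after 3 further greenhouse weeks; mean of three experiments.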
Compound,"Post-emergence herbicidal activity, A. theophrasti (grade) (Abutilon theophrasti; dosage 2.5 g/mu)","Post-emergence herbicidal activity, A. theophrasti (grade) (Abutilon theophrasti; dosage 5 g/mu)","Post-emergence herbicidal activity, A. theophrasti (grade) (Abutilon theophrasti; dosage 10 g/mu)","Post-emergence herbicidal activity, A. retroflexus (grade) (Amaranthus retroflexus; dosage 2.5 g/mu)","Post-emergence herbicidal activity, A. retroflexus (grade) (Amaranthus retroflexus; dosage 5 g/mu)","Post-emergence herbicidal activity, A. retroflexus (grade) (Amaranthus retroflexus; dosage 10 g/mu)","Post-emergence herbicidal activity, E. crusgalli (grade) (Echinochloa crusgalli; dosage 2.5 g/mu)","Post-emergence herbicidal activity, E. crusgalli (grade) (Echinochloa crusgalli; dosage 5 g/mu)","Post-emergence herbicidal activity, E. crusgalli (grade) (Echinochloa crusgalli; dosage 10 g/mu)","Post-emergence herbicidal activity, P. oleracea (grade) (Portulaca oleracea; dosage 2.5 g/mu)","Post-emergence herbicidal activity, P. oleracea (grade) (Portulaca oleracea; dosage 5 g/mu)","Post-emergence herbicidal activity, P. oleracea (grade) (Portulaca oleracea; dosage 10 g/mu)","Post-emergence herbicidal activity, S. viridis (grade) (Setaria viridis; dosage 2.5 g/mu)","Post-emergence herbicidal activity, S. viridis (grade) (Setaria viridis; dosage 5 g/mu)","Post-emergence herbicidal activity, S. viridis (grade) (Setaria viridis; dosage 10 g/mu)","Post-emergence herbicidal activity, Trifoliumre pensL. (grade) (Trifoliumre pensL.; dosage 2.5 g/mu)","Post-emergence herbicidal activity, Trifoliumre pensL. (grade) (Trifoliumre pensL.; dosage 5 g/mu)","Post-emergence herbicidal activity, Trifoliumre pensL. (grade) (Trifoliumre pensL.; dosage 10 g/mu)"
O=C1C2=C(CCCC2)C(=O)N1c1cc(OCc2nnc(-c3ccc([N+](=O)[O-])cc3)o2)c(Cl)cc1F [Compound B18],4 (Grade 4: the growth control rate is greater than or equal to 60% and less than 85%),5 (Grade 5: the growth control rate is greater than or equal to 85%),5 (Grade 5: the growth control rate is greater than or equal to 85%),5 (Grade 5: the growth control rate is greater than or equal to 85%),5 (Grade 5: the growth control rate is greater than or equal to 85%),5 (Grade 5: the growth control rate is greater than or equal to 85%),1 (Grade 1: the growth control rate is greater than or equal to 5% and less than 20%),2 (Grade 2: the growth control rate is greater than or equal to 20% and less than 40%),3 (Grade 3: the growth control rate is greater than or equal to 40% and less than 60%),4 (Grade 4: the growth control rate is greater than or equal to 60% and less than 85%),5 (Grade 5: the growth control rate is greater than or equal to 85%),5 (Grade 5: the growth control rate is greater than or equal to 85%),2 (Grade 2: the growth control rate is greater than or equal to 20% and less than 40%),3 (Grade 3: the growth control rate is greater than or equal to 40% and less than 60%),4 (Grade 4: the growth control rate is greater than or equal to 60% and less than 85%),5 (Grade 5: the growth control rate is greater than or equal to 85%),5 (Grade 5: the growth control rate is greater than or equal to 85%),5 (Grade 5: the growth control rate is greater than or equal to 85%)
O=C1C2=C(CCCC2)C(=O)N1c1cc(OCc2nc(-c3ccc(I)cc3)no2)c(Cl)cc1F [Compound A27],5 (Grade 5: the growth control rate is greater than or equal to 85%),5 (Grade 5: the growth control rate is greater than or equal to 85%),5 (Grade 5: the growth control rate is greater than or equal to 85%),5 (Grade 5: the growth control rate is greater than or equal to 85%),5 (Grade 5: the growth control rate is greater than or equal to 85%),5 (Grade 5: the growth control rate is greater than or equal to 85%),1 (Grade 1: the growth control rate is greater than or equal to 5% and less than 20%),2 (Grade 2: the growth control rate is greater than or equal to 20% and less than 40%),3 (Grade 3: the growth control rate is greater than or equal to 40% and less than 60%),5 (Grade 5: the growth control rate is greater than or equal to 85%),5 (Grade 5: the growth control rate is greater than or equal to 85%),5 (Grade 5: the growth control rate is greater than or equal to 85%),2 (Grade 2: the growth control rate is greater than or equal to 20% and less than 40%),3 (Grade 3: the growth control rate is greater than or equal to 40% and less than 60%),4 (Grade 4: the growth control rate is greater than or equal to 60% and less than 85%),5 (Grade 5: the growth control rate is greater than or equal to 85%),5 (Grade 5: the growth control rate is greater than or equal to 85%),5 (Grade 5: the growth control rate is greater than or equal to 85%)
"O=C(COc1cc(N2C(=O)C3=C(CCCC3)C2=O)c(F)cc1Cl)c1cccc(F)c1 [Compound C7, 2-(4-chloro-2-fluoro-5-(2-oxo-2-(3-fluorophenyl)ethoxy)phenyl)-4,5,6,7-tetrahydro-1H-isoindole-1,3(2H)-dione]",5 (Grade 5: the growth control rate is greater than or equal to 85%),5 (Grade 5: the growth control rate is greater than or equal to 85%),5 (Grade 5: the growth control rate is greater than or equal to 85%),5 (Grade 5: the growth control rate is greater than or equal to 85%),5 (Grade 5: the growth control rate is greater than or equal to 85%),5 (Grade 5: the growth control rate is greater than or equal to 85%),1 (Grade 1: the growth control rate is greater than or equal to 5% and less than 20%),2 (Grade 2: the growth control rate is greater than or equal to 20% and less than 40%),3 (Grade 3: the growth control rate is greater than or equal to 40% and less than 60%),5 (Grade 5: the growth control rate is greater than or equal to 85%),5 (Grade 5: the growth control rate is greater than or equal to 85%),5 (Grade 5: the growth control rate is greater than or equal to 85%),2 (Grade 2: the growth control rate is greater than or equal to 20% and less than 40%),3 (Grade 3: the growth control rate is greater than or equal to 40% and less than 60%),4 (Grade 4: the growth control rate is greater than or equal to 60% and less than 85%),5 (Grade 5: the growth control rate is greater than or equal to 85%),5 (Grade 5: the growth control rate is greater than or equal to 85%),5 (Grade 5: the growth control rate is greater than or equal to 85%)
O=C1C2=C(CCCC2)C(=O)N1c1cc(OCc2nnc(-c3ccccc3Br)o2)c(Cl)cc1F [Compound B6],5 (Grade 5: the growth control rate is greater than or equal to 85%),5 (Grade 5: the growth control rate is greater than or equal to 85%),5 (Grade 5: the growth control rate is greater than or equal to 85%),5 (Grade 5: the growth control rate is greater than or equal to 85%),5 (Grade 5: the growth control rate is greater than or equal to 85%),5 (Grade 5: the growth control rate is greater than or equal to 85%),1 (Grade 1: the growth control rate is greater than or equal to 5% and less than 20%),2 (Grade 2: the growth control rate is greater than or equal to 20% and less than 40%),3 (Grade 3: the growth control rate is greater than or equal to 40% and less than 60%),5 (Grade 5: the growth control rate is greater than or equal to 85%),5 (Grade 5: the growth control rate is greater than or equal to 85%),5 (Grade 5: the growth control rate is greater than or equal to 85%),2 (Grade 2: the growth control rate is greater than or equal to 20% and less than 40%),3 (Grade 3: the growth control rate is greater than or equal to 40% and less than 60%),4 (Grade 4: the growth control rate is greater than or equal to 60% and less than 85%),5 (Grade 5: the growth control rate is greater than or equal to 85%),5 (Grade 5: the growth control rate is greater than or equal to 85%),5 (Grade 5: the growth control rate is greater than or equal to 85%)
